Marks after values point to notes of the source that are not given here.
Columns and labels:
Type in all cases: in vivo
Conditions in all cases: 100 = 100% disease control
[1] = tested on: Botrytis cinerea; test: Test C: tomato Botrytis on tomato seedlings, sprayed the day before inoculation, visual disease rating
From the text: General protocol for preparing test suspensions for Tests A-J: The test compounds were first dissolved in acetone in an amount equal to 3% of the final volume and then suspended at the desired concentration (in ppm) in acetone and purified water (50/50 mix) containing 250 ppm of the surfactant Trem® 014 (polyhydric alcohol esters). The resulting test suspensions were then used in tests A-J. Spraying a 200 ppm test suspension to the point of run-off on the test plants was the equivalent of a rate of 500 g/ha. […] The test suspension was sprayed to the point of run-off on tomato seedlings. […] A dash (-) indicates no test results. All results are for 200 ppm except where followed by “*”, which indicates 40 ppm.

[2] = tested on: Alternaria solani; test: Test D: tomato early blight, sprayed the day before inoculation, visual disease rating
From the text: (§1) General protocol for preparing test suspensions for Tests A-J: The test compounds were first dissolved in acetone in an amount equal to 3% of the final volume and then suspended at the desired concentration (in ppm) in acetone and purified water (50/50 mix) containing 250 ppm of the surfactant Trem® 014 (polyhydric alcohol esters). The resulting test suspensions were then used in tests A-J. Spraying a 200 ppm test suspension to the point of run-off on the test plants was the equivalent of a rate of 500 g/ha. […] The test suspension was sprayed to the point of run-off on wheat seedlings. […] A dash (-) indicates no test results. All results are for 200 ppm except where followed by “*”, which indicates 40 ppm.

[3] = tested on: Septoria nodorum; test: Test F: wheat glume blotch on wheat seedlings, sprayed the day before inoculation, visual disease rating
From the text: as §1

[4] = tested on: Septoria tritici; test: Test G: wheat leaf blotch on wheat seedlings, sprayed the day before inoculation, visual disease rating
From the text: General protocol for preparing test suspensions for Tests A-J: The test compounds were first dissolved in acetone in an amount equal to 3% of the final volume and then suspended at the desired concentration (in ppm) in acetone and purified water (50/50 mix) containing 250 ppm of the surfactant Trem® 014 (polyhydric alcohol esters). The resulting test suspensions were then used in tests A-J. Spraying a 200 ppm test suspension to the point of run-off on the test plants was the equivalent of a rate of 500 g/ha. […] The test suspension was sprayed to the point of run-off on wheat seedlings. The following day the seedlings were inoculated with a spore suspension of Septoria tritici (the causal agent of wheat leaf blotch) and incubated in saturated atmosphere at 24° C. for 48 h, and then moved to a growth chamber at 20° C. for 19 days, after which time visual disease ratings were made. […] A dash (-) indicates no test results. All results are for 200 ppm except where followed by “*”, which indicates 40 ppm.

[5] = tested on: Puccinia recondita f. sp. tritici; test: Test I: wheat leaf rust on wheat seedlings, sprayed the day before inoculation, visual disease rating
From the text: as §1

[6] = tested on: Erysiphe graminis f. sp. tritici; test: Test J: wheat powdery mildew on wheat seedlings, sprayed the day before inoculation, visual disease rating
From the text: as §1

[7] = 200 ppm, 0 = no control relative to controls
[8] = 40 ppm (marked *), 0 = no control

Structure (SMILES) | Test C disease control rating ([1]; 200 ppm, 0 = no control) [%] | Test D disease control rating ([2]; 200 ppm, 0 = no control) [%] | Test F disease control rating ([3]; 200 ppm, 0 = no control) [%] | Test G disease control rating ([4]; 200 ppm, 0 = no control) [%] | Test I disease control rating ([5]; 200 ppm, 0 = no control) [%] | Test J disease control rating ([6]; 200 ppm, 0 = no control) [%] | Test C disease control rating [1, 7] [%] | Test D disease control rating [2, 7] [%] | Test F disease control rating [3, 7] [%] | Test G disease control rating [4, 7] [%] | Test I disease control rating [5, 7] [%] | Test J disease control rating [6, 7] [%] | other results
Cc1ccc(-n2c(C)nc(Cl)c2-c2ccc(F)cc2Cl)cc1 [compound 188] | 98 | 100 | 0 | 97 | 100 | 99 | – | – | – | – | – | – | –
Cc1nc(Cl)c(-c2ccc(F)cc2Cl)n1-c1ccc(Cl)cc1 [compound 49] | – | – | – | – | – | – | 98 | 100 | 100 | 94 | 99 | 99 | –
Fc1cc(-n2c(Cl)nc(Cl)c2-c2c(F)cccc2F)ccc1Cl [compound 225] | 96 | 100 | 0 | 98 | 99 | 100 | – | – | – | – | – | – | –
COc1nc(Cl)c(-c2c(Cl)nc(Cl)n2-c2ccc(Cl)c(F)c2)s1 [compound 456] | – | – | – | – | – | – | 0 | 0 | 0 | 88 | 0 | 43 | –
Fc1ccc(F)c(-c2c(Cl)nc(Br)n2-c2ccc(Cl)cc2)c1F [compound 50] | – | – | – | – | – | – | 98 | 100 | 100 | 92 | 100 | 100 | –
COc1cc(F)c(-c2c(Cl)nc(I)n2-c2ccc(Cl)cc2)c(F)c1 [compound 245] | 100 | 99 | 100 | 97 | 95 | 99 | – | – | – | – | – | – | –
Cc1ccc(-n2c(Cl)nc(Cl)c2-c2c(F)ccc(F)c2F)cc1 [compound 130] | – | – | – | – | – | – | 98 | 100 | 0 | 85 | 99 | 96 | –
COc1ccc(F)c(-c2c(Br)ncn2-c2ccc(Cl)cc2)c1F [compound 449] | – | – | – | – | – | – | 99 | 100 | 99 | 97 | 99 | 100 | –
Cc1nc(Cl)c(-c2c(F)cccc2F)n1-c1cnc2ccccc2c1 [compound 199] | 92 | 100 | 100 | 96 | 98 | 95 | – | – | – | – | – | – | –
Fc1cc(-n2c(Br)nc(Cl)c2-c2c(F)cccc2Cl)ccc1Cl [compound 203] | 87 | 98 | 87 | 97 | 100 | 99 | – | – | – | – | – | – | –
Cc1ncn(-c2ccc(Cl)c(F)c2)c1-c1ccccn1 [compound 251] | 99 | 0 | 0 | 81 | 9 | 0 | – | – | – | – | – | – | –
Fc1ccc(-n2c(Cl)nc(Cl)c2-c2c(F)ccc(F)c2Cl)cc1 [compound 196] | 99 | 100 | 0 | 92 | 100 | 97 | – | – | – | – | – | – | –
Fc1cc(Cn2c(Br)nc(Cl)c2-c2c(F)cccc2F)ccc1Cl [compound 102] | – | – | – | – | – | – | 98 | 0 | 55 | 97 | 99 | 99 | –
COc1cc(F)c(-c2c(-c3ccc(Cl)cc3)c(C)nn2C)c(F)c1 [compound 77] | – | – | – | – | – | – | 98 | 100 | 82 | 97 | 99 | 100 | –
COc1cc(F)c(-c2c(C)nc(C)n2-c2ccc(Cl)c(F)c2)c(F)c1 [compound 44] | – | – | – | – | – | – | – | – | – | – | – | – | Test C disease control rating ([1]; 40 ppm (marked *)): 99* %; Test D disease control rating ([2]; 40 ppm (marked *)): 100* %; Test F disease control rating ([3]; 40 ppm (marked *)): 40* %; Test G disease control rating ([4]; 40 ppm (marked *)): 92* %; Test I disease control rating ([5]; 40 ppm (marked *)): 99* %; Test J disease control rating ([6]; 40 ppm (marked *)): 98* %
Cc1nc(Cl)c(-c2ccc(F)cc2Cl)n1-c1ccc(Cl)c(F)c1 [compound 243] | 99 | 100 | 98 | 99 | 100 | 98 | – | – | – | – | – | – | –
COc1cc(F)c(-c2c(C)ncn2-c2ccc(Cl)nc2)c(F)c1 [compound 254] | 100 | 100 | 0 | 95 | 99 | 98 | – | – | – | – | – | – | –
Fc1cccc(F)c1-c1c(Cl)nc(Br)n1Cc1ccc(Cl)cc1 [compound 103] | – | – | – | – | – | – | 79 | 92 | 90 | 98 | 100 | 99 | –
Cc1nc(Cl)c(-c2c(F)cccc2F)n1Cc1ccc(Cl)c(F)c1 [compound 120] | – | – | – | – | – | – | 98 | 0 | 0 | 96 | 90 | 92 | –
Cc1nc(C)n(-c2ccc(Cl)cc2)c1-c1c(F)cccc1F [compound 151] | – | – | – | – | – | – | – | – | – | – | – | – | Test C disease control rating [1, 8]: 97* %; Test D disease control rating [2, 8]: 100* %; Test F disease control rating [3, 8]: 69* %; Test G disease control rating [4, 8]: 99* %; Test I disease control rating [5, 8]: 89* %; Test J disease control rating [6, 8]: 96* %
N#Cc1cc(F)c(-c2c(Cl)ncn2-c2ccc(Cl)cc2)c(F)c1 [compound 193] | 99 | 100 | 0 | 98 | 97 | 98 | – | – | – | – | – | – | –
COc1cc(F)c(-c2c(Br)nc(OC)n2-c2ccc(Cl)cc2)c(F)c1 [compound 96] | – | – | – | – | – | – | – | – | – | – | – | – | Test C disease control rating ([1]; 40 ppm (marked *)): 98* %; Test D disease control rating ([2]; 40 ppm (marked *)): 100* %; Test F disease control rating ([3]; 40 ppm (marked *)): 97* %; Test G disease control rating ([4]; 40 ppm (marked *)): 97* %; Test I disease control rating ([5]; 40 ppm (marked *)): 97* %; Test J disease control rating ([6]; 40 ppm (marked *)): 99* %
Cc1nn(C)c(-c2c(F)cccc2F)c1-c1ccc(Cl)c(F)c1 [compound 68] | – | – | – | – | – | – | 0 | 0 | 0 | 40 | 9 | 99 | –
Fc1cc(F)c(-n2cnc(Br)c2-c2ccc(Cl)cc2)c(F)c1 [compound 212] | – | – | – | – | – | – | – | – | – | – | – | – | Test C disease control rating [1, 8]: 40* %; Test D disease control rating [2, 8]: 20* %; Test F disease control rating [3, 8]: 0* %; Test G disease control rating [4, 8]: 0* %; Test I disease control rating [5, 8]: 0* %; Test J disease control rating [6, 8]: 0* %
Cc1nc(Cl)n(-c2ccc(Cl)c(F)c2)c1-c1ccccn1 [compound 264] | 99 | 88 | 0 | 95 | 98 | 99 | – | – | – | – | – | – | –
Cc1ccc(-n2c(Br)nc(Cl)c2-c2c(F)cccc2Cl)cc1 [compound 186] | 98 | 88 | 0 | 97 | 100 | 100 | – | – | – | – | – | – | –

Source: patent US20110045101A1, “FUNGICIDAL SUBSTITUTED AZOLES” (E.I. Du Pont De Nemours and Company, priority 2009, published 2011)
